Literature values as cited in patent US20120184751A1, “POLYMORPHIC FORM OF OLMESARTAN MEDOXOMIL” (RANBAXY LABORATORIES LIMITED, priority 2009, published 2012).

Conditions: 75% relative humidity at 40° C. for one month

CCCc1nc(C(C)(C)O)c(C(=O)OCc2oc(=O)oc2C)n1Cc1ccc(-c2ccccc2-c2nnn[nH]2)cc1 [amorphous olmesartan medoxomil, 2,3-dihydroxy-2-butenyl-4-(1-hydroxy-1-methylethyl)-2-propyl-1-[p-(o-1H-tetrazol-5-ylphenyl)benzyl]imidazole-5-carboxylate, cyclic 2,3-carbonate]
solid-state stability / form conversion on storage: converts into hydrated olmesartan medoxomil having crystalline appearance
